Source: patent publication US20060105361A1, “Donor yeast strain for transfer of genetic material” (priority 2004, published 2006)

Test system: wild-type strains
Assay: Spot tests of yeast strains on SD-leu plates containing camptothecin and CuSO4
Type: cell-based, Saccharomyces cerevisiae
Procedure: The mutant and wild-type TOP1 were cloned under the control of the copper-inducible CUP1 promoter. These plasmids were transformed into the MATa universal donor strain (J1361), the MATalpha deletion library wild-type strain (BY4742) and rad9 and rad50 deletion strains from the library. Transformation reactions were plated on SD-leu media and incubated for 3 days at 30° C. to allow colony growth. […] B. Transformants from A were grown overnight in liquid SD-leu media, equalized by OD, serially diluted and spotted onto SD-leu plates containing the indicated concentrations of CuSO4. Each panel is a group of three strains containing the vector, TOP1 or TOP1-T722A plasmids as indicated on the right. […] Spot tests shown at the bottom contain 5 μg/ml camptothecin.

CC[C@@]1(O)C(=O)OCc2c1cc1n(c2=O)Cc2cc3ccccc3nc2-1 [camptothecin]
sensitivity (viability in spot test) of strains containing the TOP1-T722A plasmid (5 μg/ml camptothecin, wild-type cells with CUP1-promoter TOP1-T722A plasmid, graded CuSO4): roughly additive effect of the TOP1-T722A mutant in conjunction with camptothecin | sensitivity (viability in spot test) of strains containing the TOP1 plasmid (5 μg/ml camptothecin, wild-type strain (BY4742) with CUP1-promoter TOP1 plasmid, graded CuSO4): only sensitive to the drug when Top1 is overexpressed by 100 μM copper | viability of the library strain on plates containing camptothecin (library strain is TOP1, relatively low doses of drug, no TOP1 overexpression): do not affect viability
